{"source": "patent EP4458916A1", "about": "“PHOTOCATALYTICALLY ACTIVE COATING COMPOSITION, METHOD FOR THE PRODUCTION THEREOF AND USE THEREOF” (priority 2023, dated 2024)", "key": {"S.aureus": {"tested_on": "S.aureus", "assay_type": "cell-based", "conditions": "for Log10 Reduktion Dunkelkontrolle 1 mM / Log10 Reduktion Dunkelkontrolle 2 mM: dark; for Log10 Reduktion Wirksamkeit 1 mM / Log10 Reduktion Wirksamkeit 2 mM: light"}, "verschiedene Virenstämme": {"tested_on": "verschiedene Virenstämme", "assay": "Virus test following ISO 21702, photodynamic effect of a SolGel coating on different virus strains", "conditions": "read-out: Log10 Reduktion Probe"}, "[1]": {"tested_on": "verschiedene Bakterienstämme", "assay": "Bacteria test following modified ISO 22196, photodynamic effect of a SolGel coating on different bacterial strains", "assay_type": "cell-based", "conditions": "Rezeptur 5 coating on Melamin, 2 mM, 4 h", "source_text": "(§1) Die Bestimmung der antimikrobiellen Aktivität erfolgte nach einer modifizierten Version der ISO 22196:2011-08 (\"Messung von antibakterieller Aktivität auf Kunststoff- und anderen porenfreien Oberflächen\", Ausgabedatum: 2011-08).\n(§2) Bei der Testdurchführung wurde ein dünner Flüssigkeitsfilm, in dem die Bakterien enthalten sind (1,25 x 10^4 /cm2), direkt auf die Probekörper (2,5 cm x 2,5 cm) aufgebracht. Direkt nach Beimpfung wurden von der Nullprobe die Bakterien von den Probekörperoberflächen mittels Ultraschall und Vortexen abgelöst und die Keimzahl (KBE (engl. CFU), Kolonie-bildende Einheit) bestimmt (t0-Wert). Ein weiterer Satz Nullproben und antimikrobiell ausgestatteter Proben wurden mit Bakterien im Flüssigkeitsfilm bei Raumtemperatur inkubiert. Nach 4 h wurden überlebende Bakterien von den Probekörperoberflächen mittels Ultraschall und Vortexen abgelöst und die Keimzahl bestimmt (t4-Wert).\n(§3) Im Unterschied zu der in der ISO 22196:2011-08 beschriebenen Methode wurde das Inokulum nicht mit einer Folie abgedeckt und die Inkubationszeit von 24 auf 4 Stunden reduziert. Weiterhin wurden die Platten der Proben 3 und 4 mit Licht mit einer Intensität von 300 µW/cm2 belichtet.\nDie Ergebnisse sind Tabelle 53 dargestellt. Tabelle 53: Photodynamische Wirkung einer SolGel Beschichtung gegen verschiedene Bakterienstämme"}, "[2]": {"assay": "Immersion test: binding / wash-out of photocatalysts from SolGel coatings (1 h deionised water, UV-VIS signal loss)", "assay_type": "physicochemical", "conditions": "Rezeptur 5 coating on glass, dye 10 bis 40 mM; 1 h deionised water pH 6 ± 1, 22 ± 3 °C; relative UV-VIS signal loss at absorption maximum", "experimental": "Für alle Untersuchungen wurden nach Beispiel 8 beschichtete Glasträger verwendet.\nUm das Auswaschen der verschiedenen Farbstoffe in den Sol-Gel-Beschichtungen zu beurteilen wurde ein Immersionstest in vollentsalztem Wasser mit einem pH-Wert von (6 ± 1) und einer Wassertemperatur von (22 ± 3) °C für eine Stunde durchgeführt. Dazu wurden zunächst Schichten (Rezeptur 5, Beispiel 4, aufgefüllt mit 3,0 mL 2-Propanol; sh. Tabelle 3) mit erhöhter Farbstoffkonzentration (10 bis 40 mM; um die notwendige Auflösung bei der dünnen Schicht zu erreichen) auf Glas-Objektträgern erzeugt. Diese wurden nach dem Ablüften bei Raumtemperatur (30 min) eine Stunde bei 60°C nachgehärtet. Anschließend wurden die Schichten direkt im UV-VIS-Spektrometer vermessen. Die Ausgangswerte (Absorptionsmaximum des jeweiligen Farbstoffs) sollten dabei zwischen 0,05 A.U. und 1,50 A.U. liegen.\nNach einer Stunde in VE-Wasser wurden die Prüfkörper getrocknet und erneut gemessen. Aus den beiden Messungen wurde ein relativer Signalverlust in Prozent bei dem farbstoffspezifischen Absorptionsmaximum bestimmt.\nDieser Immersionstest diente dazu, das Auswaschverhalten verschiedener Farbstoffe aus Beschichtungssystemen zu beurteilen. Weiter soll er dabei helfen, verschiedene Farbstoffklassen oder verschiedene Farbstoffderivate einer Farbstoffklasse bezüglich dieser Charakteristik miteinander zu vergleichen. Die Ergebnisse sind in den folgenden Tabellen sortiert nach Stoffgruppen zusammengefasst: […]"}, "Bakterien [3]": {"tested_on": "Bakterien", "assay": "Durability: bacteria test (ISO 22196) after immersion in Incidin Plus (10% in water) or isopropanol (70% in water)", "assay_type": "cell-based", "conditions": "4 h, Rezeptur 2 (Borsäure) on Melamin, 2 mM", "source_text": "as §1, §2, §3\nUm die Haltbarkeit der Beschichtung bzw. das Auswaschen des Farbstoffs gegen gängige Reinigungs- und Desinfektionsmitteln, wurden damit Immersionstests in Incidin Plus (Ecolab GmbH, 10% in Wasser, Farbstoff S-25a) und Isopropanol (70% in Wasser) durchgeführt.\nDer Bakterientest wurde in Anlehnung an ISO 22196 nach oben beschriebener Methode durchgeführt. Die Ergebnisse sind in den Tabellen 59 und 60 zusammengefasst. Tabelle 59: Mikrobiologische Wirksamkeit (Iog10 Reduktion) nach X h Immersion in Incidin Plus (10% in Wasser)."}, "Bakterien [4]": {"tested_on": "Bakterien", "assay": "Thermal ageing: bacteria test (ISO 22196) after accelerated ageing ASTM F1980-16 at 60°C for 4 weeks", "assay_type": "cell-based", "conditions": "4 h, beschleunigte Alterung 60°C, Rezeptur 2 (Borsäure) on Melamin, 2 mM", "source_text": "as §1, §2, §3\nZur Beurteilung der Schicht auf Alterungsprozesse, wurde eine beschleunigte Alterung nach ASTM F1980-16 bei 60°C für 4 Wochen durchgeführt.\nDer Bakterientest wurde in Anlehnung an ISO 22196 nach oben beschriebener Methode durchgeführt. Die Ergebnisse sind in der Tabelle 62 zusammengefasst. Tabelle 62: Mikrobiologische Wirksamkeit (log10 Reduktion) bei beschleunigter Alterung (60°C)."}, "Bakterien [5]": {"tested_on": "Bakterien", "assay": "Photostability: bacteria test (ISO 22196) after simulated long-term illumination (18 mW/cm^2, 405 nm)", "assay_type": "cell-based", "conditions": "4 h, Rezeptur 2 (Borsäure) on Melamin, 2 mM", "source_text": "as §1, §2, §3\nZur Bewertung der Photostabilität des Farbstoffs S-25a (2 mM) in der Beschichtung wurden beschichtete Flächen mit 18 mW/cm^2 (405 nm, ca. 200 Fache Raumlichtintensität, Zeitrafferversuch) bestrahlt. So wurde eine Echtzeit-Photostabilität von 2 Jahren simuliert.\nDer Bakterientest wurde in Anlehnung an ISO 22196 nach oben beschriebener Methode durchgeführt. Die Ergebnisse sind in der Tabelle 61 zusammengefasst. Tabelle 61: Mikrobiologische Wirksamkeit nach simulierter Photobelastung für 1, 2, 3, 6, 12 und 24 Monate"}, "[6]": {"conditions": "Rezeptur 2, Verdünnung mit IPA 1:2"}, "[7]": {"conditions": "Rezeptur 2, Verdünnung mit IPA 1:5"}, "[8]": {"conditions": "Rezeptur 2, Verdünnung mit IPA 1:8"}}, "note": "Where two headings read alike, the source gives them in different places.", "data": [{"smiles": "CC(C)(O)c1cc[n+](CC2=Cc3cccc4cccc(c34)C2=O)cc1", "note": "[S-25a]", "values": [{"measurement": "Log10 Reduktion Dunkelkontrolle 1 mM", "setting": "S.aureus; [6]", "value": "0,1±0,4"}, {"measurement": "Log10 Reduktion Dunkelkontrolle 2 mM", "setting": "S.aureus; [6]", "value": "0,0±0,0"}, {"measurement": "Log10 Reduktion Wirksamkeit 1 mM", "setting": "S.aureus; [6]", "value": "3,0±0,2"}, {"measurement": "Log10 Reduktion Wirksamkeit 2 mM", "setting": "S.aureus; [6]", "value": "3,3±0,5"}, {"measurement": "Log10 Reduktion Dunkelkontrolle 1 mM", "setting": "S.aureus; [7]", "value": "0,0±0,2"}, {"measurement": "Log10 Reduktion Dunkelkontrolle 2 mM", "setting": "S.aureus; [7]", "value": "0,1±0,1"}, {"measurement": "Log10 Reduktion Wirksamkeit 1 mM", "setting": "S.aureus; [7]", "value": "2,0±0,2"}, {"measurement": "Log10 Reduktion Wirksamkeit 2 mM", "setting": "S.aureus; [7]", "value": "2,8±0,2"}, {"measurement": "Log10 Reduktion Dunkelkontrolle 1 mM", "setting": "S.aureus; [8]", "value": "0,0±0,2"}, {"measurement": "Log10 Reduktion Dunkelkontrolle 2 mM", "setting": "S.aureus; [8]", "value": "0,0±0,1"}, {"measurement": "Log10 Reduktion Wirksamkeit 1 mM", "setting": "S.aureus; [8]", "value": "1,5±0,1"}, {"measurement": "Log10 Reduktion Wirksamkeit 2 mM", "setting": "S.aureus; [8]", "value": "2,7±0,6"}, {"measurement": "log reduction at 2000 µM", "setting": "verschiedene Virenstämme; 83 min", "value": 5.5}, {"measurement": "log reduction at 2000 µM", "setting": "verschiedene Virenstämme; Influenza A virus, H1N1, 83 min", "value": 3.8}, {"measurement": "log reduction at 2000 µM", "setting": "verschiedene Virenstämme; unidentified adenovirus, 83 min", "value": 2}, {"measurement": "log reduction at 2000 µM", "setting": "[1]; Acinetobacter baumannii, ATCC15308, A. baumanii ATCC 15308 (Gram negativ), 300 µW/cm2, read-out: Log10 Reduktion Probe", "value": "> 4"}, {"measurement": "log reduction at 2000 µM", "setting": "[1]; Acinetobacter baumannii, ATCC15308, A. baumanii ATCC 15308 (Gram negativ), dark, read-out: Log10 Reduktion Dunkelkontrolle", "value": 0.1}, {"measurement": "log reduction at 2000 µM", "setting": "[1]; Enterococcus faecium, E.faecium EDCC 5271 (Gram positiv), 300 µW/cm2, read-out: Log10 Reduktion Probe", "value": "> 4"}, {"measurement": "log reduction at 2000 µM", "setting": "[1]; Enterococcus faecium, E.faecium EDCC 5271 (Gram positiv), dark, read-out: Log10 Reduktion Dunkelkontrolle", "value": 0}, {"measurement": "log reduction at 2000 µM", "setting": "[1]; Staphylococcus aureus, ATCC6538, S.aureus ATCC 6538 (Gram positiv), 300 µW/cm2, read-out: Log10 Reduktion Probe", "value": "> 4"}, {"measurement": "log reduction at 2000 µM", "setting": "[1]; Staphylococcus aureus, ATCC6538, S.aureus ATCC 6538 (Gram positiv), dark, read-out: Log10 Reduktion Dunkelkontrolle", "value": 0.1}, {"measurement": "Verlust durch Auswaschen", "setting": "[2]", "value": 8, "unit": "%"}, {"measurement": "log reduction at 2000 µM", "setting": "Bakterien [3]; Immersion in Incidin Plus (10% in Wasser) 0 h, read-out: Log10 Reduktion nach 0 h, Probe", "value": 3.7}, {"measurement": "log reduction at 2000 µM", "setting": "Bakterien [3]; Immersion in Incidin Plus (10% in Wasser) 1 h, dark, read-out: Log10 Reduktion nach 1 h, Dunkelkontrolle", "value": 0.8}, {"measurement": "log reduction at 2000 µM", "setting": "Bakterien [3]; Immersion in Incidin Plus (10% in Wasser) 1 h, read-out: Log10 Reduktion nach 1 h, Probe", "value": 2.6}, {"measurement": "log reduction at 2000 µM", "setting": "Bakterien [3]; Immersion in Incidin Plus (10% in Wasser) 2 h, read-out: Log10 Reduktion nach 2 h, Probe", "value": 2.4}, {"measurement": "log reduction at 2000 µM", "setting": "Bakterien [3]; Immersion in Incidin Plus (10% in Wasser) 3 h, read-out: Log10 Reduktion nach 3 h, Probe", "value": 1.4}, {"measurement": "log reduction at 2000 µM", "setting": "Bakterien [4]; 0 Wo, dark, read-out: Log10 Reduktion nach 0 Wo, Dunkelkontrolle", "value": 0.1}, {"measurement": "log reduction at 2000 µM", "setting": "Bakterien [4]; 0 Wo, read-out: Log10 Reduktion nach 0 Wo, Probe", "value": 3.9}, {"measurement": "log reduction at 2000 µM", "setting": "Bakterien [4]; 1 Wo, dark, read-out: Log10 Reduktion nach 1 Wo, Dunkelkontrolle", "value": 0}, {"measurement": "log reduction at 2000 µM", "setting": "Bakterien [4]; 1 Wo, read-out: Log10 Reduktion nach 1 Wo, Probe", "value": 3.8}, {"measurement": "log reduction at 2000 µM", "setting": "Bakterien [4]; 2 Wo, dark, read-out: Log10 Reduktion nach 2 Wo, Dunkelkontrolle", "value": 0}, {"measurement": "log reduction at 2000 µM", "setting": "Bakterien [4]; 2 Wo, read-out: Log10 Reduktion nach 2 Wo, Probe", "value": 3.4}, {"measurement": "log reduction at 2000 µM", "setting": "Bakterien [4]; 3 Wo, dark, read-out: Log10 Reduktion nach 3 Wo, Dunkelkontrolle", "value": 0.3}, {"measurement": "log reduction at 2000 µM", "setting": "Bakterien [4]; 3 Wo, read-out: Log10 Reduktion nach 3 Wo, Probe", "value": 3.3}, {"measurement": "log reduction at 2000 µM", "setting": "Bakterien [4]; 4 Wo, dark, read-out: Log10 Reduktion nach 4 Wo, Dunkelkontrolle", "value": 0.4}, {"measurement": "log reduction at 2000 µM", "setting": "Bakterien [4]; 4 Wo, read-out: Log10 Reduktion nach 4 Wo, Probe", "value": 2.8}, {"measurement": "log reduction at 2000 µM", "setting": "Bakterien [5]; 2 Monate simulated, dark, read-out: Log10 Reduktion nach x Monaten simulierter Belastung: 2, Dunkelkontrolle", "value": 0.2}, {"measurement": "log reduction at 2000 µM", "setting": "Bakterien [5]; 3 Monate simulated, dark, read-out: Log10 Reduktion nach x Monaten simulierter Belastung: 3, Dunkelkontrolle", "value": 0.2}, {"measurement": "log reduction at 2000 µM", "setting": "Bakterien [5]; 24 Monate simulated, dark, read-out: Log10 Reduktion nach x Monaten simulierter Belastung: 24, Dunkelkontrolle", "value": 0.2}, {"measurement": "log reduction at 2000 µM", "setting": "Bakterien [5]; pre-illumination 18 mW/cm^2, 405 nm, 0 Monate, read-out: Log10 Reduktion nach x Monaten simulierter Belastung: Start (0), Probe", "value": 4.7}, {"measurement": "log reduction at 2000 µM", "setting": "Bakterien [5]; pre-illumination 18 mW/cm^2, 405 nm, 1 Monat simulated, read-out: Log10 Reduktion nach x Monaten simulierter Belastung: 1, Probe", "value": 4.6}, {"measurement": "log reduction at 2000 µM", "setting": "Bakterien [5]; pre-illumination 18 mW/cm^2, 405 nm, 2 Monate simulated, read-out: Log10 Reduktion nach x Monaten simulierter Belastung: 2, Probe", "value": 4.3}, {"measurement": "log reduction at 2000 µM", "setting": "Bakterien [5]; pre-illumination 18 mW/cm^2, 405 nm, 3 Monate simulated, read-out: Log10 Reduktion nach x Monaten simulierter Belastung: 3, Probe", "value": 4.2}, {"measurement": "log reduction at 2000 µM", "setting": "Bakterien [5]; pre-illumination 18 mW/cm^2, 405 nm, 6 Monate simulated, read-out: Log10 Reduktion nach x Monaten simulierter Belastung: 6, Probe", "value": 4.3}, {"measurement": "log reduction at 2000 µM", "setting": "Bakterien [5]; pre-illumination 18 mW/cm^2, 405 nm, 12 Monate simulated, read-out: Log10 Reduktion nach x Monaten simulierter Belastung: 12, Probe", "value": 4.3}, {"measurement": "log reduction at 2000 µM", "setting": "Bakterien [5]; pre-illumination 18 mW/cm^2, 405 nm, 24 Monate simulated, read-out: Log10 Reduktion nach x Monaten simulierter Belastung: 24, Probe", "value": 4.3}]}]}
